Assay: gradient 5% acetonitrile 3 min, to 50% in 2 min, to 85% in 15 min, held 3 min, 100 µL/min
Conditions: column: Zorbax Extend-C18 2.1 x 50 mm; eluents: water / acetonitrile, 0.1% formic acid
Method in brief: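 Pure standards were analyzed in mixtures of ~100 molecules using HPLC coupled to a quadrupole time-of-flight mass spectrometer, in both positive and negative ionization mode. Separation used a Zorbax Extend-C18 column (2.1 × 50 mm, 1.8 μm) at 100 μL/min, with water and acetonitrile each containing 0.1% formic acid. Dead and dwell volumes were 40 μL and 900 μL, and data were collected over 3 months. Retention time was read from computationally picked adduct peaks, each inspected manually.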

| SMILES | RP-LC retention time [s] |
| --- | --- |
| CCc1ccccc1NS(=O)(=O)c1cc(-c2[nH]ncc2C(=O)N2CCOCC2)oc1C | 721 |
| CCC(=O)NCc1nc2c(n1C)CN(S(=O)(=O)c1cccc(C(F)(F)F)c1)CC2 | 591 |
| Fc1ccc(Nc2c(-c3ccc(Br)cc3)nc3cnccn23)cc1 | 980 |
| Cc1ccc(-n2c(=O)c3c(cc(C)n3C)n(CC(=O)Nc3ccccc3F)c2=O)cc1 | 841 |
| CCOc1ccc(NS(=O)(=O)c2cc(C(=O)N3CCN(c4ccc(C)cc4C)CC3)n[nH]2)cc1 | 1030 |
| CCn1c(=O)c(C(=O)NC2CC2)nc2cc(C)c(C)cc21 | 887 |
| COCCCNC(=O)C1CCCN(c2ccc(=O)n(-c3ccc(OC)cc3)n2)C1 (stereo not given) | 658 |
| COc1ccc(-c2nn(CCCC(=O)N3CCN(c4ccccn4)CC3)c(=O)c3noc(C)c23)cc1 | 636 |
| Cc1ccc(C2=NC3(CCN(C(=O)c4ccc[nH]4)CC3)ON2)cc1 | 747 |
| CC1CC(C)CN(CCCNC(=O)CCCOc2cc(=O)n(C)c3ccccc23)C1 (stereo not given) | 604 |
| CC(C)S(=O)(=O)N1CC(Oc2ccccc2-c2nc(C3CC3)no2)C1 | 984 |
| O=C(c1cccs1)N1CCN(Cc2ccc(=O)n(CC3CC3)c2)CC1 | 480 |
| COc1cc(OC)cc(-c2nc(-c3cn(Cc4ccc(C)cc4)nn3)no2)c1 | 1090 |
| CN(C)C[C@@H]1CN(S(C)(=O)=O)C[C@H]1NC(=O)c1cccn1C | 573 |
| CCc1nc(NCc2ccc3c(c2)OCO3)ncc1C(=O)O | 766 |
| CCOc1ccc(NC(=O)C2CCN(C(=O)C3Sc4ccccc4NC3=O)CC2)cc1 (stereo not given) | 725 |
| O=C(NCc1cccs1)c1ccc(-c2cccnc2)nc1 | 614 |
| Cc1ccc2[nH]cc(CCN3CC(C(=O)Nc4ccc(Br)cc4)CC3=O)c2c1 (stereo not given) | 916 |
| CN1CCN(C(CNC(=O)C(=O)Nc2ccc(F)cc2F)c2ccc3c(c2)OCO3)CC1 (stereo not given) | 685 |
| Cc1nnc(-c2coc(S(=O)(=O)N3CCOCC3)c2)o1 | 654 |
| COc1ccc2c(c1)C1(CCN(C(=O)NC(C)C)C1)C(=O)N2C (stereo not given) | 681 |
| O=C(NCC#CCN1CCc2ccccc2C1)c1c(F)cccc1Cl | 565 |
| CCOc1ccc(S(=O)(=O)N2CCC(C(=O)N3CCN(C)CC3)CC2)cc1 | 569 |

| SMILES | RP-LC retention time [s] |
| --- | --- |
| COCCOC1CCC12CCN(C(=O)c1ocnc1C)CC2 (stereo not given) | 686 |
| Cc1cc(C)cc(N2CCC(NC(=O)NCc3cccc(F)c3)C2=O)c1 (stereo not given) | 851 |
| COc1cc(NC(=O)Cc2ccc(S(=O)(=O)C(C)C)cc2)c2ncccc2c1 | 827 |
| CCC(=O)N1CCc2sc(S(=O)(=O)NCc3ccc4c(c3)OCO4)cc2C1 | 773 |
| Cc1[nH]c(C(=O)N2CCN(c3ccccc3F)CC2)c(C)c1S(=O)(=O)N1CCOCC1 | 793 |
| O=C(NC1CCc2ccccc21)C1CCN(c2ncnc3c2oc2ccccc23)CC1 (stereo not given) | 778 |
| Cc1nc(N2CCOCC2)c2c(C(=O)NCC3CCN(Cc4ccccc4Cl)CC3)c(C)oc2n1 | 613 |
| Cc1oc(-c2[nH]ncc2C(=O)N(C)C)cc1S(=O)(=O)NCc1ccc(Cl)cc1 | 725 |
| O=C(c1ccco1)N1CCCC1c1nc(C2CCOCC2)no1 (stereo not given) | 673 |
| O=C(NCc1ccc(F)cc1)Nc1ccc2c(c1)CCN2S(=O)(=O)c1ccccc1 | 904 |
| Cc1nc(-c2cn(C(C)C)c3ncccc23)sc1C(=O)Nc1ccccc1F | 1090 |
| CCCNc1nc(-c2ccc(Br)cc2)cs1 | 1000 |
| COCCOCc1nc(C2CCCN2C(=O)c2ccsc2)no1 (stereo not given) | 679 |
| COCCNC(=O)NCC(O)Cc1ccccc1 (stereo not given) | 591 |
| COc1ccc2c(c1)c(CN1CCC(C(=O)NCCN3CCN(C)CC3)CC1)cn2C | 564 |
| CC(=O)N1C[C@@H]2CCCN3CCC[C@@H]([C@H]23)[C@H]1CCCC(=O)NCC1CC1 | 562 |
| CCc1sc(NC(=O)Cc2c(F)cccc2Cl)nc1-c1ccccc1 | 1150 |
| COc1cc(NC(=O)C(=O)c2cccn2C)cc(OC)c1 | 976 |
| CC(NC(=O)c1cccc(N(C)C)c1)C(=O)Nc1nc2ccccc2[nH]1 (stereo not given) | 603 |
| Cc1cc(Cl)ccc1NS(=O)(=O)c1cc(-c2cc(C(F)(F)F)on2)sc1C | 1260 |
| O=C(NCc1csc(-c2ccccc2)n1)C1CCN(S(=O)(=O)c2ccc(Cl)cc2)CC1 | 976 |
| COc1cc(NC(=O)N2CCCC(Cn3cnc4cccnc43)C2)cc(OC)c1 (stereo not given) | 682 |
| CC(=O)N1CCc2sc(S(=O)(=O)N3CCN(c4ccccc4)CC3)cc2C1 | 884 |

| SMILES | RP-LC retention time [s] |
| --- | --- |
| Cc1nn(C)cc1C(C)NC(=O)C1CCN(c2cnn(Cc3ccccc3)c(=O)c2)CC1 (stereo not given) | 652 |
| Cc1nc(C(=O)NCc2ccc(F)cc2Cl)c(C)o1 | 874 |
| O=C(Cc1cccn1-c1cccc(Cl)c1)NCc1ccc(N2CCOCC2)cc1 | 890 |
| Cc1onc(-c2c(Cl)cccc2Cl)c1C(=O)N1CCN(C)CC1 | 609 |
| CCCN(CCC)CC(=O)N1CC(=O)Nc2ccccc21 | 617 |
| O=C(Cn1cccn1)N1CCN(c2cccc(Cl)c2Cl)CC1 | 782 |
| CCCOCCOC(=O)C1=C(C)NC2=C(C(=O)C(C(=O)OC)C(C)C2)C1c1ccccc1F (stereo not given) | 946 |
| CC1CCN(S(=O)(=O)c2ccc3nn(CC#N)c(=O)n3c2)CC1 | 813 |
| CC(=O)Nc1ccc(Cc2nc(-c3ccc4c(c3)oc(=O)n4C)no2)cc1 | 729 |
| O=C(NCCn1nnc2cc(C(=O)N3CCCC3)ccc21)Nc1ccccc1 | 616 |
| CCn1cc(CCNC(=O)Nc2ccc(Cl)cc2F)c2cccnc21 | 824 |
| O=C(Cc1csc2nc(-c3ccccc3)cn12)NCc1ccccc1Cl | 832 |
| COc1ccc(N2CCN(c3ncc(S(=O)(=O)c4ccc(C)cc4)c(N)n3)CC2)cc1 | 919 |
| CCOC(=O)c1ccc(NC(=O)Cc2csc3nc(-c4ccc(C)c(C)c4)cn23)cc1 | 922 |
| CCCn1cc(-c2ccncc2)cc1C(=O)NCc1ccccc1C | 689 |
| CCN(CCNS(=O)(=O)c1ccc2c(c1)CCCC(=O)N2)Cc1ccccc1 | 608 |
| CC(C)Oc1ccc(C(=O)N(Cc2ccc(Br)o2)C2CCS(=O)(=O)C2)cc1 (stereo not given) | 963 |
| CCC1CCCCN1C(=O)c1cnc2nc(C)ccc2c1Nc1ccc(C)c(F)c1 (stereo not given) | 716 |
| Cc1csc(-c2csc(S(=O)(=O)N3CCN(c4ccccc4)CC3)c2)n1 | 1090 |
| COC1CCC12CCN(C(=O)c1cnccn1)CC2 (stereo not given) | 657 |
| COc1ccc(-c2nnc(-c3ccc(C)c(S(=O)(=O)N(C)CC(=O)O)c3)o2)cc1OC | 748 |
| COC(=O)c1cccc(C(=O)Nc2cccc(C)c2C)n1 | 899 |
| COc1cccc(-c2noc(C3CCCN3C(=O)Nc3ccc(OC)c(F)c3)n2)c1 (stereo not given) | 946 |

| SMILES | RP-LC retention time [s] |
| --- | --- |
| CC(C)n1c(=O)sc2cc(S(=O)(=O)N3CCC(C(=O)NCc4cccnc4)CC3)ccc21 | 808 |
| CC(=O)NCc1csc(C2CCCN(C(=O)c3cc(F)ccc3F)C2)n1 (stereo not given) | 667 |
| COc1ccc(NC(=O)N2CCC(CN3CCCC(C)C3)CC2)cc1Cl (stereo not given) | 629 |
| COc1ccc(OC)c(-c2csc(Nc3ccc(Br)cn3)n2)c1 | 1190 |
| CCN1C(=O)c2cc(S(=O)(=O)NCc3ccc(F)cc3)ccc2Oc2cccnc21 | 1060 |
| O=C(NCc1cccs1)C1CCCN(C(=O)C2Sc3ccccc3NC2=O)C1 (stereo not given) | 725 |
| NC(=O)c1ccc(NC(=O)CSC2=Nc3ccccc3N=C(c3ccccn3)C2)cc1 | 738 |
| COc1ccc(C2(C(=O)N3CCN(C(=O)c4cc(-c5ccncc5)n[nH]4)CC3)CC2)cc1 | 610 |
| Cc1ccccc1NS(=O)(=O)c1cn(CC(C)C)c2ncccc12 | 976 |
| Clc1cc(Cl)cc(-c2ccc(CNCc3cccnc3)o2)c1 | 733 |
| CCN1CCC(n2cc(CNc3cc(Cl)c4ncc(C#N)c(Nc5ccc(F)c(Cl)c5)c4c3)nn2)CC1 | 727 |
| CCN1C(=O)c2cccc3c(NC(=O)Cc4cccs4)ccc1c23 | 718 |
| COc1ccc2[nH]cc(CCN3CC(C(=O)Nc4ccc(Br)cc4)CC3=O)c2c1 (stereo not given) | 844 |
| Cc1nn(CC(=O)N2CCC(C)CC2)c(=O)c2c(-n3cccc3)n(-c3ccc(Cl)cc3)nc12 | 1130 |
| Cc1ccc(CNC(=O)Cn2cnc3nc4c(cc3c2=O)CCCC4)cc1 | 728 |
| CSc1ccc(CNC(=O)CN2CCc3[nH]c4c(C)cc(F)cc4c(=O)c3C2)cc1 | 638 |
| Cc1ccc(NC(=O)N2CCCC2c2nc(-c3cccc(C)c3)no2)cc1 (stereo not given) | 1060 |
| Cc1noc(C)c1S(=O)(=O)NCC1CCN(C(=O)c2cccn(C)c2=O)CC1 | 599 |
| Cc1sc(-c2nc(C(C)C)cs2)cc1S(=O)(=O)NCc1cccs1 | 1150 |
| N#Cc1ccc(-c2csc(NC(=O)c3ccc(Cl)cc3)n2)cc1 | 1140 |
| Clc1cccc(-c2nc(-c3ccc4c(c3)ncn4CCN3CCOCC3)no2)c1 | 676 |

Reference: the METLIN SMRT retention time set (Domingo-Almenara et al. 2019)
